Read-outs that look alike come from different tables or passages of the source.

By inhibition is commonly meant the share of the control response that was lost under treatment.

Assay [1] addresses T1, PI3K (p110α) kinase (Homo sapiens, UniProt P42336).
T1 construct: made in house
Kind of assay: PI3K (p110α) kinase assay (PI3K HTRF Assay). To be noted: in vitro enzyme activity assay, 10 μM PIP2, read-out: PI3K (p110α) enzyme activity_IC50. It is filed as biochemical. The source says: Conclusion: The compounds of the present invention have significant inhibitory effect on mTOR/PI3K. Example In Vitro Enzyme Activity Assay 1. The experimental procedures and methods of PI3K (p110α) kinase assay: 1) Experimental Objective
The objective was to evaluate the inhibitory effect of the subject samples on PI3K (p110α) kinase activity at molecular level.
(§1) PerkinElmer Envision 2104 Multilabel Reader.
PI 3-Kinase HTRF Assay (384 wells) was purchased from Upstate (Millipore) company: PI3K (p110α) kinase was made in our lab.
c) Experimental procedures
Each solution was prepared according to the instructions provided in the Kinase PI 3-Kinase HTRF Assay. The kinase reaction was carried out in white 384-well plates (Proxiplate-384 plus), 0.5 μl of DMSO (the concentration was consistent with the highest concentration of DMSO for the test compounds) was added to each of the two control wells with and without enzyme, and then 0.5 μl of a series of different concentrations of the test compounds was added to each well to be tested. The kinase reaction liquid (10 μM substrate PIP2, 0.5 ng PI3K (p110α)) was added to the control well containing enzyme and the test wells, while only working reaction liquid (10 μM substrate PIP2) was added to the control well without enzyme, and finally, 5 μM ATP working reaction liquid was added to activate the reaction. After the reaction was carried out at room temperature for 30 min, the stop solution was added to each well to terminate the kinase reaction. After the mixture was fully mixed, the detection liquid was added to each well and fully mixed. The plate was sealed with Parafilm and placed in the dark. After incubated overnight, the mixture was detected.
(§2) The IC50 value was calculated through the GraphPad software after plotting the relative inhibitory rate versus concentration.
In general terms: TR-FRET usually uses a lanthanide donor and a delayed reading to cut background.

The test system of assay [2] is MCF-7 cells. In words: In vitro test of cell activity (MCF-7 cells, insulin stimulation, ELISA-One fluorescence). It is filed as cell-based. The note with it: Homo sapiens, MCF7, MCF-7 cells; for inhibition at 0.25 µM: conc. 0.25 μM; for inhibition at 0.5 µM: conc. 0.5 μM; for inhibition at 1 µM: conc. 1 μM. The method in brief: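 MCF-7 cells, seeded at 2.5×10^4/well in 10% FBS medium, were given compound in serum-free medium for 2 h at one concentration (screen) or a series (IC50). Insulin stimulation followed at […] final for 30 min; lysates assayed by ELISA-One sandwich immunoassay with fluorescence read-out.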
(In general: ELISA stands for enzyme-linked immunosorbent assay.)

The target in assay [3] is T2, mTOR kinase (Homo sapiens, UniProt P42345).
T2 construct: made in house
Kind of assay: mTOR kinase assay. The note with it: in vitro enzyme activity assay; ATP 100 μM; read-out: mTOR enzyme activity_IC50. The class given is biochemical. As to the method: 2. Experimental Procedures and Methods of the mTOR Kinase Assay
The objective was to evaluate the inhibitory effect of the subject samples on the mTOR kinase activity at molecular level.
as §1
The mTOR Kinase Assay (384 wells) was purchased from PerkinElmer company; the mTOR kinase was made in our lab.
Each solution was prepared according to the instructions provided in the mTOR Kinase Assay. The kinase reaction was carried out in white 384-well plates (Proxiplate-384 plus). 2.5 μl of DMSO (the concentration was consistent with the highest concentration of DMSO for the test compounds) was added to each of the two control wells with and without enzyme, and then 2.5 μl of a series of different concentrations of the test compounds was added to each test well. ULight-4E-BP1 (Thr37/46) PeptideATP mix (the final concentration of ATP was 100 μM) and 5 μl of mTOR kinase were added to the control well containing enzyme as well as the test wells, and fully mixed. The plate was sealed with Parafilm and incubated for 2 h. Then 5 μl of stop solution was added and incubated for 5 minutes. Afterwards, 5 μl of Detection Mix (Eu-anti-phospho-4E-BP1 (Thr37/46) Antibody, the final concentration was 2 nM) was added and incubated for 1 h, and then the mixture was detected.
as §2

T1 sequence (P42336 whole entry): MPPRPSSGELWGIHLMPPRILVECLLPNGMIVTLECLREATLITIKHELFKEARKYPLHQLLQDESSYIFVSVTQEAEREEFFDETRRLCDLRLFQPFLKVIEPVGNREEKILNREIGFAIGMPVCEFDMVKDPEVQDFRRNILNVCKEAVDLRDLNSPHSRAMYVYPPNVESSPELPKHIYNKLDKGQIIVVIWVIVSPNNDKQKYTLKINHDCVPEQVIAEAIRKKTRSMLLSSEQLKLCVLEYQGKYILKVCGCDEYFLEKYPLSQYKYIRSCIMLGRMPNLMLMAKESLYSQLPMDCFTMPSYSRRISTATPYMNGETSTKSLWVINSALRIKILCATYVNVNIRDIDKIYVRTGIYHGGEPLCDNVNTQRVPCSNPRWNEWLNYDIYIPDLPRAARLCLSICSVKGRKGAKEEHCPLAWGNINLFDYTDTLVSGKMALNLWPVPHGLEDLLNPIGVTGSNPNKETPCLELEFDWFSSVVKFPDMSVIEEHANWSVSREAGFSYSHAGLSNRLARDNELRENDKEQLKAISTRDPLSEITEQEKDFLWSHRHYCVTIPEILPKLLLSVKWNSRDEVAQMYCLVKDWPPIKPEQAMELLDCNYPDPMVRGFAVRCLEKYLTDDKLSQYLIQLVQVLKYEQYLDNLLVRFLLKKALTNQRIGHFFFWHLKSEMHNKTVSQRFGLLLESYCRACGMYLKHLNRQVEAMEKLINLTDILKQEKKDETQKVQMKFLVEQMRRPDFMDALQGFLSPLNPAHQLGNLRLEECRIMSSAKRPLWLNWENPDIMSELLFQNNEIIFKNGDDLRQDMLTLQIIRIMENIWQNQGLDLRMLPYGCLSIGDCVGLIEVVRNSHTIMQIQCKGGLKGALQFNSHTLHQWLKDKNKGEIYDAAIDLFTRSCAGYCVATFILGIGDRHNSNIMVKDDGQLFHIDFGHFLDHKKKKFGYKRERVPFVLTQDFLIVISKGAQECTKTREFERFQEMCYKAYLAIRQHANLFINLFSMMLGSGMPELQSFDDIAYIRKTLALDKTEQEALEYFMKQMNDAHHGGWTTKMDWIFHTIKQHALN

With `COc1ncc(-c2ccc3ncc(Cl)c(=O)n3c2)cc1NS(=O)(=O)c1sccc1Cl` [compound 150], the IC50 was ≤ 1 nM in assay [1], ≤ 50 nM in assay [2] (read-out: IC50 p-AKT), ≤ 50 nM in assay [2] (read-out: IC50 p-p70S6K) and 1 to 10 nM in assay [3]. In addition, the inhibition at 0.25 µM in assay [2] (read-out: % inhibition AKT) was found to be 93.5%; in assay [2] (read-out: % inhibition p70s6k), 82.3%.
For the molecule `COc1ncc(-c2ccc3ncc(F)c(=O)n3c2)cc1NS(=O)(=O)c1ccc(F)cc1F` [compound 61, 2,4-difluoro-N-(5-(3-fluoro-4-oxo-4H-pyrido[1,2-a]pyrimidin-7-yl)-2-methoxypyridin-3-yl)benzsulfamide], the IC50 in assay [1] is 10 to 50 nM; in assay [2] (read-out: IC50 p-AKT), ≤ 50 nM; in assay [2] (read-out: IC50 p-p70S6K), ≤ 50 nM; in assay [3], ≤ 1 nM. Moreover, the inhibition at 0.5 µM in assay [2] (read-out: % inhibition AKT) worked out at 78.9%; in assay [2] (read-out: % inhibition p70s6k) it was 89.7%.
As to `COc1ncc(-c2ccc3nccc(=O)n3c2)cc1NS(=O)(=O)c1ccc(C)cc1F` [compound 28], the IC50 was 1 to 10 nM in assay [1], ≤ 50 nM in assay [2] (read-out: IC50 p-AKT), 50 to 100 nM in assay [2] (read-out: IC50 p-p70S6K) and 10 to 50 nM in assay [3]. In addition, the inhibition at 1 µM in assay [2] (read-out: % inhibition AKT) amounted to 96.2%; in assay [2] (read-out: % inhibition p70s6k), 93.9%.
For the molecule `COc1ncc(-c2ccc3nccc(=O)n3c2)cc1NS(=O)(=O)c1ccc(F)cc1C` [compound 26], the IC50 in assay [1] is 1 to 10 nM; in assay [2] (read-out: IC50 p-AKT), ≤ 50 nM; in assay [2] (read-out: IC50 p-p70S6K), 50 to 100 nM; in assay [3] it was 10 to 50 nM. Moreover, the inhibition at 1 µM in assay [2] (read-out: % inhibition AKT) was determined as 95.6%; in assay [2] (read-out: % inhibition p70s6k), 93.7%.
Turning to `COc1ncc(-c2ccc3ncc(OC)c(=O)n3c2)cc1NS(=O)(=O)c1ccc(F)cc1Cl` [compound 104], the IC50 in assay [1] is 1 to 10 nM; in assay [2] (read-out: IC50 p-AKT), ≤ 50 nM; in assay [2] (read-out: IC50 p-p70S6K), ≤ 50 nM; in assay [3], 10 to 50 nM. The inhibition at 0.5 µM in assay [2] (read-out: % inhibition AKT) is 95.2%; in assay [2] (read-out: % inhibition p70s6k), 91.7%.
As for `COc1ncc(-c2ccc3ncc(C)c(=O)n3c2)cc1NS(=O)(=O)c1ccc(F)cc1Cl` [compound 83], the IC50 was ≤ 1 nM in assay [1], ≤ 50 nM in assay [2] (read-out: IC50 p-AKT), 50 to 100 nM in assay [2] (read-out: IC50 p-p70S6K) and 1 to 10 nM in assay [3]. For the same molecule, the values for the inhibition at 0.5 µM in assay [2] (read-out: % inhibition AKT) and in assay [2] (read-out: % inhibition p70s6k) were 95% and 87.9%, respectively.
On to `COc1ncc(-c2ccc3ncc(Cl)c(=O)n3c2)cc1NS(=O)(=O)c1ccc(Cl)s1` [compound 144], for which the IC50 in assay [1] was ≤ 1 nM; in assay [2] (read-out: IC50 p-AKT) it was ≤ 50 nM; in assay [2] (read-out: IC50 p-p70S6K), ≤ 50 nM; in assay [3] it was ≤ 1 nM. The inhibition at 0.5 µM was found to be 95.8% in assay [2] (read-out: % inhibition AKT) and 89.4% in assay [2] (read-out: % inhibition p70s6k).
`COc1ncc(-c2ccc3ncc(C)c(=O)n3c2)cc1NS(=O)(=O)c1ccc(F)cc1F` [compound 81, 2,4-difluoro-N-(2-methoxy-5-(3-methyl-4-oxo-4H-pyrido[1,2-a]pyrimidin-7-yl)pyridin-3-yl)benzsulfamide]: the IC50 in assay [1] is 1 to 10 nM; in assay [2] (read-out: IC50 p-AKT), ≤ 50 nM; in assay [2] (read-out: IC50 p-p70S6K) it was 100 to 250 nM; in assay [3], 1 to 10 nM. The inhibition at 0.5 µM in assay [2] (read-out: % inhibition AKT) is 90.1%; in assay [2] (read-out: % inhibition p70s6k), 85.5%.
`COc1ncc(-c2ccc3ncc(Cl)c(=O)n3c2)cc1NS(=O)(=O)c1c(Cl)cccc1Cl` [compound 149]: the IC50 in assay [1] was 1 to 10 nM; in assay [2] (read-out: IC50 p-AKT), ≤ 50 nM; in assay [2] (read-out: IC50 p-p70S6K) it was ≤ 50 nM; in assay [3] it was 1 to 10 nM. Further, the inhibition at 0.25 µM in assay [2] (read-out: % inhibition AKT) turned out to be 92%; in assay [2] (read-out: % inhibition p70s6k), 80.7%.
